In patent US7780966B2, “Artificial invaplex” (The United States of America as represented by the …, priority 2007, dated 2010):

Legend:
[1] = test system: IpaB; settings: in vivo
[2] = test system: IpaC; settings: in vivo

## ovalbumin
[1]
  Anti-IpaB Serum IgG (geomean endpoint titer): 90 ± 0
[2]
  Anti-IpaC Serum IgG (geomean endpoint titer): 90 ± 0
